Source: publication PMC8053501 (Diabetes, Metabolic Syndrome and Obesity: Targets and …, 2021)
“Also recorded” adds a separate entry of the source. Like-named read-outs stand apart in the source and are kept apart here.

How the values were obtained:
[1] = normal mice, oral gavage, 3mg/kg
[2] = tested on: diabetes mellitus patients; test: Acute kidney injury; assay type: in vivo, human; details: for Association with AKI, Unadjusted (95% CI) / Association with AKI, Adjusted (95% CI): metformin as reference; for Association with AKI, Adjusted (95% CI): multivariate; for Association with AKI compared to control drug metformin, in words: multivariate analysis; for Events During the 90 days (AKI): primary endpoint, first 90 days, patients above 55 years; for Total endpoint (AKI events): primary plus secondary endpoint; for Events at secondary end (AKI): secondary endpoint, after 90 days of hospital admission; for Total Percent (incidence rate of AKI at the end of the study): share of the 4966 total outcomes
in vivo = details: male, ICR, mouse, po
[3] = Endpoint Diagnosis with 1047 Outcome
[4] = Secondary Diagnosis with 3919 Outcomes

Cn1c(=O)cc(N2CCC[C@@H](N)C2)n(Cc2ccccc2C#N)c1=O [Alogliptin, alogliptin]
Drug concentration, time course ([1]; Kidney, 0h): 0
Drug concentration, time course ([1]; Kidney, 3h): 6700
Drug concentration, time course ([1]; Kidney, 6h): 4300
Drug concentration, time course ([1]; Kidney, 9h): 2350
Drug concentration, time course ([1]; Kidney, 12h): 100
Drug concentration, time course ([1]; Kidney, 15h): 50
Drug concentration, time course ([1]; Kidney, 18h): 0
Drug concentration, time course ([1]; Kidney, 21h): 0
Drug concentration, time course ([1]; Kidney, 24h): 0
Drug concentration, time course ([1]; Liver, 0h): 0
Drug concentration, time course ([1]; Liver, 3h): 6340
Drug concentration, time course ([1]; Liver, 6h): 3500
Drug concentration, time course ([1]; Liver, 9h): 1980
Drug concentration, time course ([1]; Liver, 12h): 300
Drug concentration, time course ([1]; Liver, 15h): 100
Drug concentration, time course ([1]; Liver, 18h): 0
Drug concentration, time course ([1]; Liver, 21h): 0
Drug concentration, time course ([1]; Liver, 24h): 0
Drug concentration, time course ([1]; Plasma, 0h): 0
Drug concentration, time course ([1]; Plasma, 3h): 400
Drug concentration, time course ([1]; Plasma, 6h): 250
Drug concentration, time course ([1]; Plasma, 9h): 50
Drug concentration, time course ([1]; Plasma, 12h): 0
Drug concentration, time course ([1]; Plasma, 15h): 0
Drug concentration, time course ([1]; Plasma, 18h): 0
Drug concentration, time course ([1]; Plasma, 21h): 0
Drug concentration, time course ([1]; Plasma, 24h): 0
Association with AKI, Unadjusted (95% CI) [2, 3]: 1.83 (1.75–2.16)
Association with AKI, Adjusted (95% CI) [2, 3]: 1.43 (1.31–2.04)
Association with AKI, Unadjusted (95% CI) [2, 4]: 2.27 (1.08–3.12)
Association with AKI, Adjusted (95% CI) [2, 4]: 2.85 (2.26–3.07)
Association with AKI compared to control drug metformin, in words [2]: increased rate of AKI
Events During the 90 days (AKI) [2]: 91
Total endpoint (AKI events) [2]: 364
Events at secondary end (AKI) [2]: 273
Total Percent (incidence rate of AKI at the end of the study) [2]: 7.33%
Tmax (in vivo): 1 h
Tmax (in vivo; 3 mg/kg): 1 h
Cmax (in vivo; 3 mg/kg, oral gavage, Kidney): 8560 ng/mL
Cmax (in vivo; 3 mg/kg, oral gavage, Liver): 6730 ng/mL
Cmax (in vivo; 3 mg/kg, oral gavage, Plasma): 943 ng/mL
half-life (in vivo; 3 mg/kg, t1/2): 2.4 h

CC1(C)S[C@@H]2[C@H](NC(=O)[C@H](N)c3ccc(O)cc3)C(=O)N2[C@H]1C(=O)O [Amoxicillin, amoxicillin]
Drug concentration, time course ([1]; Kidney, 0h): 9860
Drug concentration, time course ([1]; Kidney, 3h): 7320
Drug concentration, time course ([1]; Kidney, 6h): 5670
Drug concentration, time course ([1]; Kidney, 9h): 2340
Drug concentration, time course ([1]; Kidney, 12h): 730
Drug concentration, time course ([1]; Kidney, 15h): 60
Drug concentration, time course ([1]; Kidney, 18h): 0
Drug concentration, time course ([1]; Kidney, 21h): 0
Drug concentration, time course ([1]; Kidney, 24h): 0
Drug concentration, time course ([1]; Liver, 0h): 12,110
Drug concentration, time course ([1]; Liver, 3h): 8700
Drug concentration, time course ([1]; Liver, 6h): 5470
Drug concentration, time course ([1]; Liver, 9h): 1350
Drug concentration, time course ([1]; Liver, 12h): 200
Drug concentration, time course ([1]; Liver, 15h): 30
Drug concentration, time course ([1]; Liver, 18h): 0
Drug concentration, time course ([1]; Liver, 21h): 0
Drug concentration, time course ([1]; Liver, 24h): 0
Drug concentration, time course ([1]; Plasma, 0h): 370
Drug concentration, time course ([1]; Plasma, 3h): 80
Drug concentration, time course ([1]; Plasma, 6h): 45
Drug concentration, time course ([1]; Plasma, 9h): 0
Drug concentration, time course ([1]; Plasma, 12h): 0
Drug concentration, time course ([1]; Plasma, 15h): 0
Drug concentration, time course ([1]; Plasma, 18h): 0
Drug concentration, time course ([1]; Plasma, 21h): 0
Drug concentration, time course ([1]; Plasma, 24h): 0
Association with AKI, Unadjusted (95% CI) [2, 3]: 1.73 (1.16–1.85)
Association with AKI, Adjusted (95% CI) [2, 3]: 1.36 (1.06–1.54)
Association with AKI, Unadjusted (95% CI) [2, 4]: 1.17 (0.88–1.43)
Association with AKI, Adjusted (95% CI) [2, 4]: 1.34 (1.07–1.82)
Events During the 90 days (AKI) [2]: 48
Total endpoint (AKI events) [2]: 293
Events at secondary end (AKI) [2]: 245
Total Percent (incidence rate of AKI at the end of the study) [2]: 5.9%
Tmax (in vivo): 1 h
Tmax (in vivo; 3 mg/kg): 1 h
Cmax (in vivo; 3 mg/kg, oral gavage, Kidney): 4510 ng/mL
Cmax (in vivo; 3 mg/kg, oral gavage, Liver): 3980 ng/mL
Cmax (in vivo; 3 mg/kg, oral gavage, Plasma): 945 ng/mL
half-life (in vivo; 3 mg/kg, t1/2): 1.6 h

Cc1ccc(-c2cc(C(F)(F)F)nn2-c2ccc(S(N)(=O)=O)cc2)cc1 [Celecoxib, celecoxib]
Drug concentration, time course ([1]; Kidney, 0h): 0
Drug concentration, time course ([1]; Kidney, 3h): 10,340
Drug concentration, time course ([1]; Kidney, 6h): 8900
Drug concentration, time course ([1]; Kidney, 9h): 6480
Drug concentration, time course ([1]; Kidney, 12h): 2100
Drug concentration, time course ([1]; Kidney, 15h): 450
Drug concentration, time course ([1]; Kidney, 18h): 0
Drug concentration, time course ([1]; Kidney, 21h): 0
Drug concentration, time course ([1]; Kidney, 24h): 0
Drug concentration, time course ([1]; Liver, 0h): 0
Drug concentration, time course ([1]; Liver, 3h): 13,200
Drug concentration, time course ([1]; Liver, 6h): 9800
Drug concentration, time course ([1]; Liver, 9h): 6250
Drug concentration, time course ([1]; Liver, 12h): 2300
Drug concentration, time course ([1]; Liver, 15h): 400
Drug concentration, time course ([1]; Liver, 18h): 50
Drug concentration, time course ([1]; Liver, 21h): 0
Drug concentration, time course ([1]; Liver, 24h): 0
Drug concentration, time course ([1]; Plasma, 0h): 0
Drug concentration, time course ([1]; Plasma, 3h): 250
Drug concentration, time course ([1]; Plasma, 6h): 50
Drug concentration, time course ([1]; Plasma, 9h): 30
Drug concentration, time course ([1]; Plasma, 12h): 0
Drug concentration, time course ([1]; Plasma, 15h): 0
Drug concentration, time course ([1]; Plasma, 18h): 0
Drug concentration, time course ([1]; Plasma, 21h): 0
Drug concentration, time course ([1]; Plasma, 24h): 0
Association with AKI, Unadjusted (95% CI) [2, 3]: 2.95 (2.68–3.25)
Association with AKI, Adjusted (95% CI) [2, 3]: 2.32 (2.12–2.68)
Association with AKI, Unadjusted (95% CI) [2, 4]: 1.87 (1.64–2.43)
Association with AKI, Adjusted (95% CI) [2, 4]: 1.86 (1.53–2.77)
Association with AKI compared to control drug metformin, in words [2]: increased rate of AKI; also recorded: higher risk for AKI
Events During the 90 days (AKI) [2]: 112
Total endpoint (AKI events) [2]: 533
Events at secondary end (AKI) [2]: 421
Total Percent (incidence rate of AKI at the end of the study) [2]: 10.72%
Tmax (in vivo): 0.5 h
Tmax (in vivo; 3 mg/kg): 0.5 h
Cmax (in vivo; 3 mg/kg, oral gavage, Kidney): 12100 ng/mL
Cmax (in vivo; 3 mg/kg, oral gavage, Liver): 11700 ng/mL
Cmax (in vivo; 3 mg/kg, oral gavage, Plasma): 983 ng/mL
half-life (in vivo; 3 mg/kg, t1/2, mouse, oral gavage, Kidney): 4.5 h
half-life (in vivo; 3 mg/kg, t1/2, mouse, oral gavage, Liver): 3.6 h
half-life (in vivo; 3 mg/kg, t1/2, mouse, oral gavage, Plasma): 2.4 h
